Experimental data as given in US5569649A, “Anti-inflammatory treatment method” (Phytopharm (NA) N.V., priority 1994, dated 1996).
“Also recorded” adds a separate entry of the source.

Assays:
[1] = Rooperol metabolites in serum after oral hypoxoside (HPLC); format: in vivo, human; details: for presence in serum (HPLC peak): 2 h after oral hypoxoside 1 g, one human volunteer
Protocol: The analytical column (4.6×250 mm) was packed with end-capped C8-bonded silica of 5 μm regular particle size (Whatman, Maidstone, England), while a guard column (2.1×75 mm) was packed with pellicular C18-bonded silica (Whatman). An in-line extraction pre-column (2.1×30 mm) was packed with preparative grade C18-bonded silica, 40 μm particle size (Analytichem International, Harbor City, Calif.).
Operating conditions involved a linear solvent gradient programmed at a flow rate of 1.5 ml/min starting with mobile phase A (0.05M KH2 PO4) to which 10% mobile phase B (acetonitrile-isopropanol, 80:20 v/v) was added after 0.01 min. This mixture was maintained for 1 minute after which a linear gradient of mobile phases A and B was begun, ending at 70% B after 16 minutes. The column temperature was maintained at 50° C.
The in-line extraction pre-column was loaded with sample (dissolved in 50 μl ethanol or in up to 200 μl of mobile phase A in the case of purified compounds; or a 200 μl aliquot of serum or urine from a human subject) and made up to 500 μl with an aqueous solution containing 8M guanidinium chloride and 1M ammonium sulfate. Blood samples were first converted to sera prior to analysis. The extraction column was flushed before and after sample introduction with 500 μl of aqueous 0.5M ammonium sulfate. The solutes trapped on the in-line extraction column were then eluted onto the analytical column by mobile phase after column switching and initiation of the analysis.
The detector was programmed to monitor the eluant at 260 nm and also to record absorption spectra from 200-400 nm.

[2] = HPLC of fecal specimen after oral hypoxoside; format: in vivo, human; details: after oral hypoxoside 1 g
Protocol: In addition, a fecal specimen was also obtained from the subject and, following extraction, was analyzed by HPLC as above (FIG. 5).

[3] = Hypoxoside metabolites from urine after oral hypoxoside (HPLC); format: in vivo, human; details: urine over 24 h after oral hypoxoside 1 g
Protocol: Example 7 describes the characterization of the rooperol metabolites which were excreted in the urine of the same subject. Urine from the same volunteer as above was collected over 24 hours following administration of the hypoxoside. The collected sample was filtered and purified by passage through a column bed of C18-bonded silica.
The urine from the volunteer in Example 6 was collected over the first 24 hours following administration of hypoxoside and then processed as follows. C18-bonded silica sorbent material (200 g, 40 μm) was pre-treated with methanol and water via a column bed. Filtered urine (5 l) was passed through the sorbent bed, followed by elution in sequence with water (400 ml), aqueous methanol (10% v/v, 400 ml), aqueous methanol (30% v/v, 800 ml) and finally with methanol (400 ml) and water (400 ml). The aqueous methanol fraction (30% v/v, 800 ml) was diluted with water (1600 ml) and again passed through the sorbent bed which was then eluted with water (400 ml) and finally with methanol (400 ml). The final methanol solution was evaporated under vacuum at 50° C. to an aqueous residue which was lyophilized to yield 1 g of a mixture of hypoxoside metabolites and endogenous urine components.
A suitable volume of filtered aqueous solution of this residue (10 mg/ml) was injected onto the in-line pre-column of the analytical HPLC system (Example 5) such that 3 fractions designated A, B, and C having the same retention times as the corresponding peaks observed in serum (Example 6) were collected at the column outlet (see FIG. 4). These fractions were rendered free of mobile phase buffer salts by standard reverse phase sorption technique and lyophilized to dryness.

[4] = Phase I dosing: hypoxoside and metabolites in serum; format: in vivo; details: oral hypoxoside preparation 1.6, 2.4 and 3.2 g, 20 human subjects
Text: In a Phase I dose-ranging and toxicity study, 20 human subjects were given oral doses of a hypoxoside preparation obtained by the methanol extraction procedure described in Example 1. The dosages were 1.6, 2.4, and 3.2 g. Following administration of the hypoxoside preparation, blood samples were collected periodically from the subjects for measurement of hypoxoside and its metabolites. The samples were converted to sera and processed as described in Example 5. The only hypoxoside/rooperol compounds detected were the sulfate and glucuronide metabolites of rooperol noted in Examples 6 and 7.

[5] = test system: TNF-α production by lipopolysaccharide-stimulated human peripheral blood mononuclear cells; test: Inhibition of TNF-α production by LPS-stimulated human PBMCs (ELISA); format: cell-based; details: for inhibition of TNF-α production, in words: LPS-stimulated human PBMCs, 1-10 μM rooperol
Protocol: (§1) In the study detailed in Example 4, cultured PBMCs enriched in monocytes were stimulated with lipopolysaccharide (20 μg/ml) in the presence and absence of rooperol at concentrations of 1-10 μM. After overnight incubation, the cells were collected and lysed, and the concentrations of TNF-α and IL-1β were measured by ELISA.
(§2) Peripheral blood mononuclear cells (PBMs) from normal human donors were separated on a Ficoll-Paque gradient and enriched in monocytes by adherence. PBMs were cultured in 12-well plates (2×10^6 cells/ml/well) in RPMI 1640 supplemented with 5% fetal calf serum.
(§3) Cultures were stimulated with lipopolysaccharide (LPS, 20 ug/ml), with or without rooperol at concentrations of 1, 2, 5, and 10 μM, and incubated overnight in 5% CO2. The cells were pelleted, resuspended in RPMI medium, and freeze-thawed five times to produce lysates. All samples were stored at -20° C. until cytokine concentrations were determined by commercial ELISA assays.

[6] = test system: IL-1β production by lipopolysaccharide-stimulated human peripheral blood mononuclear cells; test: Inhibition of IL-1β production by LPS-stimulated human PBMCs (ELISA); format: cell-based; details: for inhibition of IL-1β production, in words: activated human mononuclear cells, 1-10 μM rooperol
Protocol: as §1, §2, §3

[7] = Susceptibility to air oxidation; format: physicochemical
[8] = Anti-inflammatory activity (general statement)
[9] = Pharmacokinetics of hypoxoside metabolites, multiple-dose study; format: in vivo, human; details: 800 mg H. rooperii methanol-extract 3 times daily for 9 days
Protocol: In a random, multiple-dose study, 6 subjects received 800 mg of H. rooperii methanol-extract 3 times daily for 9 days, and blood samples were collected daily for 12 days (with the exception that no samples were collected on day 11).

| SMILES | presence in serum (HPLC peak) [1] | presence in fecal specimen (HPLC peak) [2] | presence in urine (HPLC peak) [3] | detection in serum [4] | inhibition of TNF-α production ([5]; 10 μM rooperol, LPS 20 μg/ml) | IC50 ([5]; Homo sapiens, PBMC, LPS 20 μg/ml, overnight incubation, FIG. 2A, read-out: half-maximal inhibition of TNF-α production) | inhibition of TNF-α production, in words [5] | IC50 ([6]; Homo sapiens, PBMC, LPS 20 μg/ml, overnight incubation, FIG. 2B, read-out: half-maximal inhibition of IL-1β production) | inhibition of IL-1β production, in words [6] | susceptibility to air oxidation [7] | anti-inflammatory activity [8] | relative abundance of metabolite in serum [9] | toxicity of metabolites, in words ([1]; oral hypoxoside, humans) | uptake into the bloodstream ([1]; oral hypoxoside, humans) |
| --- | --- | --- | --- | --- | --- | --- | --- | --- | --- | --- | --- | --- | --- | --- |
| Oc1ccc(C#CC/C=C/c2ccc(O)c(O)c2)cc1O [rooperol] | None of these peaks corresponded to rooperol or hypoxoside | Only one major peak was observed, with a retention time corresponding to that of rooperol | None of the other urinary peaks corresponded to rooperol or hypoxoside | Neither hypoxoside nor rooperol could be detected | nearly complete inhibition | 1000 to 2000 nM | dose-dependent inhibition; also recorded: potent inhibitor | 1000 to 2000 nM | dose-dependent inhibition; also recorded: potent inhibitor | susceptible to air oxidation | significant anti-inflammatory activity |  |  |  |
| O=S(=O)(O)Oc1ccc(C#CC/C=C/c2ccc(OS(=O)(=O)O)c(O)c2)cc1O [C, rooperol 4,4'-disulfate] | appearance of three new peaks |  | found in the urine sample |  |  |  |  |  |  |  |  | minor metabolites |  |  |
| OC[C@H]1O[C@@H](Oc2ccc(C#CC/C=C/c3ccc(O[C@@H]4O[C@H](CO)[C@@H](O)[C@H](O)[C@H]4O)c(O)c3)cc2O)[C@H](O)[C@@H](O)[C@@H]1O [hypoxoside] | None of these peaks corresponded to rooperol or hypoxoside | No peaks were detectable | None of the other urinary peaks corresponded to rooperol or hypoxoside | Neither hypoxoside nor rooperol could be detected |  |  | inactive |  | inactive |  |  |  | metabolized to non-toxic derivatives | taken up rapidly into the bloodstream |
| O=C(O)[C@H]1O[C@@H](Oc2ccc(C#CC/C=C/c3ccc(O[C@@H]4O[C@H](C(=O)O)[C@@H](O)[C@H](O)[C@H]4O)c(O)c3)cc2O)[C@H](O)[C@@H](O)[C@@H]1O [A, rooperol 4,4'-diglucuronide] | appearance of three new peaks |  | found in the urine sample |  |  |  |  |  |  |  |  | minor metabolites |  |  |
